The source of these data is patent US10570131B2, “Heterocyclic compounds and their use in preventing or treating bacterial infections” (MUTABILIS, priority 2015, dated 2020).

Where a name gives a salt, the structure may show the parent alone.

In general, IC50 refers to the midpoint of a concentration-inhibition curve.

The target of one assay is T1, OXA-15 (Pseudomonas aeruginosa, UniProt Q51574).
T1 construct: made in house; host or cells: E. coli expression vector
Nature of the assay: biochemical. Here is the method: (§1) Method 1: β-lactamase Inhibitory Activity, Determination of IC50 (Table 1)
(§2) Enzyme activity was monitored by spectrophotometric measurement of nitrocefin (NCF—TOKU-E, N005) hydrolysis at 485 nm, at room temperature and in assay buffer A: 100 mM Phosphate pH7, 2% glycerol and 0.1 mg/mL Bovine serum albumin (Sigma, B4287). Enzymes were cloned in E. coli expression vector, expressed and purified in house using classical procedures. To a transparent polystyrene plate (Corning, 3628) were added in each well 5 μL DMSO or inhibitor dilutions in DMSO and 80 μL enzyme in buffer A. Plates were immediately read at 485 nm in a microplate spectrophotometer (BioTek, PowerWave HT) to enable background subtraction. After 30 min of pre-incubation at room temperature, 15 μL of NCF (200 μM final) were finally added in each well. Final enzyme concentrations were 0.1 nM (TEM-1), 0.075 nM (SHV-1), 0.4 nM (CTX-M-15), 1 nM (KPC-2), 0.2 nM (P99 AmpC), 0.2 nM (CMY-37), 0.4 nM (AmpC P. aeruginosa), 0.2 nM (OXA-1), 1.2 nM (OXA-11), 0.4 nM (OXA-15) and 0.3 nM (OXA-48). After 20 min incubation at room temperature, plates were once again read at 485 nm. Enzyme activity was obtained by subtracting the final signal by the background, and was converted to enzyme inhibition using non inhibited wells. IC50 curves were fitted to a classical Langmuir equilibrium model with Hill slope using XLFIT (IDBS).

The target in a further assay is T2, AmpC (P99) (Enterobacter cloacae, UniProt P05364).
T2 construct: made in house; host or cells: E. coli expression vector
T2 sequence (P05364 21-381): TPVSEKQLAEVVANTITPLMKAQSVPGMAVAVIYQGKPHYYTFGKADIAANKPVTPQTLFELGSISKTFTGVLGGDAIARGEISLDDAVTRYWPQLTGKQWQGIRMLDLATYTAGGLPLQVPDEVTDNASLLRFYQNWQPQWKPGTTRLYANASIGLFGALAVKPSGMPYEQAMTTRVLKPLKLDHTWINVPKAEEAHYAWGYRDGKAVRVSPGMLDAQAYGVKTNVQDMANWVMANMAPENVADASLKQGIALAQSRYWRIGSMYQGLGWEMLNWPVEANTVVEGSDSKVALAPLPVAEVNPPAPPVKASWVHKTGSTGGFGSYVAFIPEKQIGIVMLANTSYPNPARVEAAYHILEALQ
In words: biochemical. How it is done: as §1, §2

For the next assay, the system named is E. cloacae UFR85. In words: MIC of ceftazidime alone and in combination with compounds (synergy), broth microdilution. Format: cell-based. The note with it: MIC of ceftazidime with compound fixed at 4 μg/mL; strain UFR85 (TEM-1, CTX-M-15, derepressed AmpC).
Another assay deals with E. coli RGN238. The description is as above. The format is cell-based. The note with it: MIC of ceftazidime with compound fixed at 4 μg/mL; strain RGN238 (OXA-1). How it is done:
(§3) Compounds of the present invention were assessed against genotyped bacterial strains alone or in combination with the β-lactam ceftazidime (CAZ). […] Briefly, compounds alone according to the invention were prepared in DMSO and spotted (2 μL each) on sterile polystyrene plates (Corning, 3788). […] Log phase bacterial suspensions were adjusted to a final density of 5×10^5 cfu/mL in cation-adjusted Mueller-Hinton broth (Becton-Dickinson) and added to each well (98 μL). Microplates were incubated for 16-20 h at 35° C. in ambient air. The MIC of the compounds was defined as the lowest concentration of said compounds that prevented bacterial growth as read by visual inspection.

Assay [1] deals with P. aeruginosa CIP105250. Described as above. Format: cell-based. The conditions noted are these: MIC of ceftazidime with compound fixed at 4 μg/mL; strain CIP105250 (OXA-15). How it is done: as §3
The subject of assay [2] is K. pneumoniae BAA-1898. The description is as above. The note with it: MIC of ceftazidime with compound fixed at 4 μg/mL; strain BAA-1898 (TEM-1, SHV-11, SHV-12, KPC-2). The format is cell-based. Here is the method: as §3
A further assay deals with P. aeruginosa CIP107051. The description is as above. The note with it: MIC of ceftazidime with compound fixed at 4 μg/mL; strain CIP107051 (TEM-24). Format: cell-based. How it is done:
as §3

The subject of another assay is K. pneumoniae 200047. Described as above. The format is cell-based. The note with it: MIC of ceftazidime with compound fixed at 4 μg/mL; strain 200047 (TEM-1, SHV-32, CTX-M-15, OXA-1).
The subject of another assay is E. coli 190317. Described as above. Format: cell-based. The note with it: MIC of ceftazidime with compound fixed at 4 μg/mL; strain 190317 (TEM-1, SHV-12, CTX-M-15, OXA-1).
The subject of another assay is E. coli UFR32. The assay is described as above. Format: cell-based. The note with it: MIC of ceftazidime with compound fixed at 4 μg/mL; strain UFR32 (TEM-1, VEB-1, OXA-10).
In another assay the test system is K. pneumoniae UFR68. Format: cell-based. The conditions noted are these: MIC of ceftazidime with compound fixed at 4 μg/mL; strain UFR68 (TEM-1, SHV-11, CTX-M-15, KPC-3).
For the next assay, the system named is K. oxytoca UFR21. In words: MIC of ceftazidime alone and in combination with compounds (synergy), broth microdilution. The format is cell-based. The conditions noted are these: MIC of ceftazidime with compound fixed at 4 μg/mL; strain UFR21 (TEM-1, CTX-M-15, OXA-48). For orientation: Dilution methods test growth across graded concentrations, often in twofold steps.

The test system of the next assay is E. cloacae 260508. The description is as above. The format is cell-based. The conditions noted are these: MIC of ceftazidime with compound fixed at 4 μg/mL; strain 260508 (TEM-1, CTX-M-15).
Another assay has as its target T3, AmpC (PAE) (Pseudomonas aeruginosa, UniProt P24735).
T3 construct: made in house; host or cells: E. coli expression vector
Nature of the assay: biochemical. Set-up: species or system P. aeruginosa. Here is the method: as §1, §2

Assay [3] concerns P. aeruginosa CIP105250. Nature of the assay: microbe, parasite or virus in culture. The conditions noted are these: Pseudomonas aeruginosa, CIP105250, read-out: MIC compounds of the invention alone. Format: cell-based. How it is done:
as §3

For assay [4], the system named is K. pneumoniae BAA-1898. Nature of the assay: microbe, parasite or virus in culture. Format: cell-based. The conditions noted are these: Klebsiella pneumoniae, BAA1898, read-out: MIC compounds of the invention alone. How it is done: as §3
For the next assay, the system named is E. coli 131119. Nature of the assay: microbe, parasite or virus in culture. The format is cell-based. The conditions noted are these: Escherichia coli, 131119, read-out: MIC compounds of the invention alone. Here is the method:
as §3

Another assay concerns K. pneumoniae 6299. Nature of the assay: microbe, parasite or virus in culture. Format: cell-based. The note with it: Klebsiella pneumoniae, 6299, read-out: MIC compounds of the invention alone. Here is the method: as §3
Another assay concerns K. pneumoniae 160143. Nature of the assay: MIC of ceftazidime alone and in combination with compounds (synergy), broth microdilution. Format: cell-based. The conditions noted are these: MIC of ceftazidime with compound fixed at 4 μg/mL; strain 160143 (TEM-1, SHV-1, CTX-M-15, KPC-2, OXA-1).
Another assay deals with E. cloacae UFR70. Described as above. Format: cell-based. The conditions noted are these: MIC of ceftazidime with compound fixed at 4 μg/mL; strain UFR70 (TEM-1, CTX-M-15, CMY-2, OXA-1, Porin loss).

T3 sequence (P24735 27-397): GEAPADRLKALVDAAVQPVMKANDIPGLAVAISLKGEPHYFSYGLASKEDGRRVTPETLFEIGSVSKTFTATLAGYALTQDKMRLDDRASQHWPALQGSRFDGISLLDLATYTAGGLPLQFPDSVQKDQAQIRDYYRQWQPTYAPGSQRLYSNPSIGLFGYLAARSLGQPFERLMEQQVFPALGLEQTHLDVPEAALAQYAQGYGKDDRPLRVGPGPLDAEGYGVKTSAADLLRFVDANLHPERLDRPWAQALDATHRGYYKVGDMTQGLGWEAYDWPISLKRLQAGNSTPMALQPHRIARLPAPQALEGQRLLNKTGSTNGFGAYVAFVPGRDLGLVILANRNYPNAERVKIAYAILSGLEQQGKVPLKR
T1 sequence (Q51574 22-275): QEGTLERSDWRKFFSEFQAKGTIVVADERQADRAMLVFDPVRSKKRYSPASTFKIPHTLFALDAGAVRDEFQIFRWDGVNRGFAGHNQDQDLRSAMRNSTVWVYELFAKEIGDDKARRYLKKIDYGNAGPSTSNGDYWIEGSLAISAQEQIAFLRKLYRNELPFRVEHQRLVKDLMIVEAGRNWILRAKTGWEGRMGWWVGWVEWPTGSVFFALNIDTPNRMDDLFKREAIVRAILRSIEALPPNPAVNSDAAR

Regarding `CNC(=O)CON=C1C[C@@H](C(N)=O)N2C[C@@H]1N(OS(=O)(=O)[O-])C2=O.[Na+]` (mixture of isomers) [Example 2, sodium [(2S,5S)-2-carbamoyl-4-[2-(methylamino)-2-oxo-ethoxy]imino-7-oxo-1,6-diazabicyclo[3.2.1]octan-6-yl] sulfate], the figures for the IC50 against OXA-15, at AmpC (P99) and at AmpC (PAE) were 0.00084 µM, 0.0032 µM and 0.11 µM, respectively. Moreover, the “MIC, combination of CAZ and compounds of the invention at 4 μg/mL” value (from here on “MIC, combination”) in the assay with E. cloacae UFR85 was 1 µg/mL; in the assay on E. coli RGN238, not above 0.25 µg/mL; in the assay on P. aeruginosa CIP105250 [1], 64 µg/mL; with K. pneumoniae BAA-1898 [2], 64 µg/mL; with P. aeruginosa CIP107051 it was 16 µg/mL; with K. pneumoniae 200047 it was 0.5 µg/mL. Further, the “MIC, combination” value with E. coli 190317 was not above 0.125 µg/mL; in the assay on E. coli UFR32, 0.5 µg/mL; in the assay with K. pneumoniae UFR68, 64 µg/mL; with K. oxytoca UFR21 it was 2 µg/mL; with E. cloacae 260508, 1 µg/mL; with K. pneumoniae 160143, 8 µg/mL. Besides, the “MIC, combination” value with E. cloacae UFR70 is 8 µg/mL. Also, the MIC with P. aeruginosa CIP105250 [3] is more than 32 µg/mL; in the assay with K. pneumoniae BAA-1898 [4] it was more than 32 µg/mL; with E. coli 131119, 8 µg/mL; in the assay on K. pneumoniae 6299, more than 32 µg/mL.
As to `NC[C@@H]1CC(=NOCC(N)=O)[C@@H]2CN1C(=O)N2OS(=O)(=O)O` (mixture of isomers) [Example 5, sodium and 2,2,2-trifluroacetate [(2S,5S)-4-(2-amino-2-oxo-ethoxy)imino-2-(azaniumylmethyl)-7-oxo-1,6-diazabicyclo[3.2.1]octan-6-yl] sulfate], the IC50 against OXA-15 is 0.008 µM; against AmpC (P99), 11 µM; against AmpC (PAE), 12 µM. The “MIC, combination” value in the assay with E. cloacae UFR85 is not above 0.25 µg/mL; in the assay with E. coli RGN238 it was not above 0.25 µg/mL; in the assay on P. aeruginosa CIP105250 [1] it was not above 0.25 µg/mL; in the assay with K. pneumoniae BAA-1898 [2], 0.5 µg/mL; in the assay with P. aeruginosa CIP107051, less than 0.25 µg/mL; with K. pneumoniae 200047 it was not above 0.25 µg/mL. Besides, the “MIC, combination” value in the assay with E. coli 190317 is less than 0.25 µg/mL; in the assay with E. coli UFR32, not above 0.25 µg/mL; in the assay on K. pneumoniae UFR68, 1 µg/mL; in the assay on K. oxytoca UFR21 it was not above 0.25 µg/mL; in the assay on E. cloacae 260508, less than 0.25 µg/mL; in the assay on K. pneumoniae 160143 it was 0.5 µg/mL. In addition, in the assay on E. cloacae UFR70, the “MIC, combination” value turned out to be 1 µg/mL. The MIC was 32 µg/mL in the assay with P. aeruginosa CIP105250 [3], more than 32 µg/mL with K. pneumoniae BAA-1898 [4], more than 32 µg/mL in the assay with E. coli 131119 and more than 32 µg/mL in the assay on K. pneumoniae 6299.
For `NC[C@@H]1CC(=O)[C@@H]2CN1C(=O)N2OS(=O)(=O)O` [Example 6, 2,2,2-trifluroacetate and sodium [(2S,5S)-2-(azaniumylmethyl)-4,7-dioxo-1,6-diazabicyclo[3.2.1]octan-6-yl] sulfate], the values for the IC50 against OXA-15, against AmpC (P99) and at AmpC (PAE) were 0.068 µM, 6.4 µM and 38 µM, respectively. Also, the “MIC, combination” value is not above 0.25 µg/mL in the assay on E. cloacae UFR85; not above 0.25 µg/mL with E. coli RGN238; 2 µg/mL in the assay on P. aeruginosa CIP105250 [1]; 1 µg/mL in the assay with K. pneumoniae BAA-1898 [2]; 0.125 µg/mL in the assay on P. aeruginosa CIP107051; 1 µg/mL in the assay with K. pneumoniae 200047. Besides, the “MIC, combination” value in the assay with E. coli 190317 was less than 0.25 µg/mL; in the assay on E. coli UFR32 it was less than 0.25 µg/mL; in the assay with K. pneumoniae UFR68, 1 µg/mL; with K. oxytoca UFR21, not above 0.25 µg/mL; in the assay with E. cloacae 260508, not above 0.25 µg/mL; with K. pneumoniae 160143, 2 µg/mL. Besides, in the assay on E. cloacae UFR70, the “MIC, combination” value was found to be 2 µg/mL. Moreover, the MIC was 16 µg/mL in the assay on P. aeruginosa CIP105250 [3], more than 32 µg/mL in the assay with K. pneumoniae BAA-1898 [4], 2 µg/mL in the assay with E. coli 131119 and more than 32 µg/mL with K. pneumoniae 6299.
